In patent US11331290B2, “Niclosamide for the treatment of cancer metastasis” (Max-Delbrück-Centrum für Molekulare Medizin in der …, priority 2011, dated 2022):

Tests used:
HCT116-S100A4 cells = assay: Boyden chamber invasion assay (Matrigel); format: cell-based, human; settings: 1 μM, 24 h, statistically not significant
Method: (§1) HCT116, SW620, LS174T, SW480 and DLD-1 cells were used in cell migration and invasion analysis performed with Boyden chamber assay. 400 μL containing 2.5×10^5 cells were seeded into each transwell chamber with filter membranes of 12.0 μm pore size (Millipore, Schwalbach, Germany). For invasion filter membranes were coated with 50 μL Matrigel (diluted 1:3 in RPMI-1640; BD Biosciences) 10 minutes before cells were seeded. Fresh medium (600 μL) were added to the bottom chamber and cells were allowed to attach to the insets for 15 hours. Both chambers were treated with 1 μM niclosamide or the respective amount of DMSO and incubated at 37° C. and 5% CO2 in a humidified incubator for 24 hours. Afterwards insets were removed and cells that had migrated through the membrane to the lower chamber were trypsinized and counted in a Neubauer chamber (LO-Laboroptik, Bad Homburg, Germany). Each well was counted ten times. Each migration or invasion experiment was performed in duplicate. The average number of migrated or invaded cells was determined for at least three independent experiments.
(§2) (A) Cell migration of HCT116-vector and HCT116-S100A4 cells exposed to niclosamide treatment. Cells were treated with 1 μM niclosamide for 24 hours and migration rates were measured with Boyden chamber assay. (B) Cell invasion of HCT116-vector and HCT116-S100A4 cells exposed to niclosamide treatment. Cells were treated with 1 μM niclosamide for 24 hours and cell invasion was determined by Boyden chamber assay. (C) Directed migration of HCT116-vector and HCT116-S100A4 cells exposed to niclosamide treatment analyzed by wound healing assay. Wounds of 300 μM width were set in a 60% confluent monolayer of HCT116-vector or HCT116-S100A4 cells on day 1. Cells were treated daily with 1 μM niclosamide for 4 days. Microphotographs of day 4 are presented here with black lines indicating margins of entered wound of day 1; scale bar represents 200 μM. Data represents three independent experiments. (D) Adhesive cell proliferation of HCT116-vector and HCT116-S100A4 cells exposed to niclosamide treatment. Cells were treated daily with 1 μM niclosamide and cell viability was determined with MTT assay. (E) Anchorage-independent cell growth of HCT116-vector and HCT116-S100A4 cells exposed to niclosamide treatment. Cells were plated as single cells into 0.33% (w/v) agarose and treatment (solvent or 1 μM niclosamide) containing medium. After 7 days colonies were visualized by light microscopy at 10× (overview) and 40× (single colony) magnification. (F) Quantification of colonies formed. Number of colonies (of more than 4 cells) was counted and normalized to solvent-treated HCT116-vector cells. Differences of niclosamide vs. solvent-treated cells were analyzed by Student's t test. […]

HCT116-vector cells = assay: Boyden chamber invasion assay (Matrigel); format: cell-based, human; settings: 24 h
Method: as §1, §2

S100A4 mRNA = S100A4 mRNA in spleen tumor of xenograft mice (qRT-PCR); format: in vivo; settings: for S100A4 mRNA level in spleen tumor, mean % of control mice / S100A4 mRNA level in spleen tumor, mean difference control vs niclosamide: day 24
Method: All experiments were performed in accordance with the UKCCCR guidelines and approved by the responsible local authorities (State Office of Health and Social Affairs, Berlin, Germany). HCT116-CMVp-LUC cells (3×10^6 cells per mouse, resuspended in 50 μL PBS) were intrasplenically transplanted into 6-week-old female nonobese diabetic-severe combined immunodeficiency (NOD-SCID) mice. Mice were randomly assigned to 3 groups and reatment of mice started 24 hours after cell transplantation. Mice of the control group (n=9) were treated with daily doses of solvent. Mice of the second group (n=9) were daily treated intraperitoneally with 20 mg per kg niclosamide. Mice of the third group (n=9) were treated intraperitoneally with two doses of 15 mg per kg niclosamide per day. The experimental endpoint was reached when mice appeared moribund and/or the spleen tumor was palpable. This was the case with the majority of control mice on day 24. For long-term in vivo experiments mice randomly assigned to 3 groups. Mice of the control group (n=6) were treated intraperitoneally with daily doses of solvent. Mice of the second group (n=6) were daily treated intraperitoneally with 20 mg per kg niclosamide. Mice of the third group (n=6) were daily treated intraperitoneally for 24 days with 20 mg per kg niclosamide and for the residual days with solvent. Mice were killed by cervical dislocation when tumor reached the maximum in accordance with the local authorities.
Spleen (as the transplantation site) and liver (as a metastasis target organ) were removed. The amount of S100A4 mRNA in the tumor was determined by Trizol RNA isolation of tumor cryosections and quantitative real-time RT-PCR. The level of metastasis was evaluated by scoring. For each liver, a score was calculated as the sum of the volumes of the individual metastases. For each metastasis the formula [width2]×length was applied.
(A) In vivo luminescence imaging of metastasis under niclosamide treatment. HCT116-CMVp-LUC cells stably expressing firefly luciferase (LUC) were intrasplenically transplanted into mice (per group n=4) followed by daily intraperitoneal treatment with 20 mg per kg niclosamide. For luminescence imaging, mice were anesthetized at the indicated days and received intraperitoneally D-luciferin. Exposure time for lateral and ventral imaging was 20 seconds per picture. In situ imaging and imaging of isolated organs was performed for 1 second per picture exposure time. Signal intensity of grayscale images (256 scale) were color coded (from low to high signal intensity: blue, green, yellow, red, white) and overlayed with bright field picture. (B) S100A4 mRNA level in spleen tumor of niclosamide-treated xenograft mice. Spleens from mice (per group n=9) were dissected on day 24. Tumor tissue was cryosected for RNA isolation. S100A4 mRNA level was measured by qRT-PCR and expressed as percentage of control mice. Differences were analyzed by two-sided one-way analysis of variance and Bonferroni post hoc multiple comparison test. Bars represent mean±SD. (C) Liver metastases size in niclosamide-treated xenograft mice. Liver was dissected from xenograft mice (per group n=9) intraperitoneally treated twice per day with 15 mg per kg or daily with 20 mg per kg niclosamide for 24 days. Metastasis was quantified by scoring. Data is given as mean±SD.
(A) S100A4 expression in vitro after discontinued niclosamide treatment. HCT116 cells were treated daily with 1 μM niclosamide for three consecutive days, medium was removed on day 4, and S100A4 expression was analyzed 24, 48, and 72 hours after niclosamide removal. S100A4 expression was analyzed by qRT-PCR and immunoblot. (B) Cell migration after discontinued niclosamide treatment. Cell migration rates of HCT116 cells treated as in (A) were determined by Boyden chamber assay. Differences in control vs. treated cells were analyzed by Student's t test. (C) Anchorage-dependent cell proliferation after discontinued niclosamide treatment. […]

[1] = 20 mg per kg daily intraperitoneally
[2] = 2×15 mg per kg per day intraperitoneally

Q: How did the “invasion rate, mean %” value (HCT116-S100A4 cells; solvent control 111.4%) turn out when `O=C(Nc1ccc([N+](=O)[O-])cc1Cl)c1cc(Cl)ccc1O` [niclosamide, 2′,5-dichloro-4′-nitrosalicylanilide] was run?
A: Its value is 122.5%.

Q: And the “invasion, mean difference control vs niclosamide” value (HCT116-S100A4 cells)?
A: The value was −11.1%.

Q: What about the “invasion, mean difference control vs niclosamide” value (HCT116-vector cells; 1 μM) of the same molecule?
A: Its value is 69.9%.

Q: And the activity at 1 µM (HCT116-vector cells; Homo sapiens, read-out: number of invaded cells, mean % of control)?
A: Its activity at 1 µM is 30.1%.

Q: What about the “S100A4 mRNA level in spleen tumor, mean % of control mice” value (S100A4 mRNA; [1]) of the same molecule?
A: Its value is 67.2%.

Q: And the “S100A4 mRNA level in spleen tumor, mean difference control vs niclosamide” value (S100A4 mRNA; [1])?
A: Its value is 32.9%.

Q: And the “S100A4 mRNA level in spleen tumor, mean % of control mice” value (S100A4 mRNA; [2])?
A: The value was 58.4%.

Q: What about the “S100A4 mRNA level in spleen tumor, mean difference control vs niclosamide” value (S100A4 mRNA; [2]) of the same molecule?
A: Its value is 41.7%.

Q: What about the “S100A4 mRNA level in spleen tumor, mean difference control vs treatment” value (S100A4 mRNA; continuous treatment) of the same molecule?
A: The value was 27%.

Q: What about the “S100A4 mRNA level in spleen tumor, mean % of control animals” value (S100A4 mRNA; continuous treatment (20 mg per kg i.p. daily)) of the same molecule?
A: The value was 73%.

Q: And the “S100A4 mRNA level in spleen tumor, mean difference control vs treatment” value (S100A4 mRNA; discontinuous treatment)?
A: Its value is 40.0%.

Q: And the “S100A4 mRNA level in spleen tumor, mean % of control animals” value (S100A4 mRNA; discontinuous treatment (20 mg per kg i.p. for 24 days, then solvent))?
A: Its value is 60%.
